Measurements reported in patent publication US11419852B2, “Beta-lactam compounds or salts thereof for use in long-acting prevention or treatment of a glucose metabolism disorder” (GLYCOLYSIS BIOMED CO., LTD., priority 2019, dated 2022).
Marks after values point to notes of the source that are not given here.

Assays:
db/db mice [1] = assay: Oral glucose tolerance test (OGTT); assay type: in vivo; parameters: OGTT AUC: unit not given here
Protocol: Four to five weeks old db/db mice (BKS.Cg-Dock7^m+/+Lepr^db/JNarl) and m/m mice (BKS.Cg-Dock7^m+/Dock7^m+) were obtained from National Laboratory Animal Center ([…], Taiwan). […] PMI Nutrition International, Brentwood, Mo.) and water ad libitum. […] Blood was sampled from the tail vein, and FPG levels were measured and recorded as the basic blood glucose levels. […] The total area under the curve (AUC) in OGTT was plotted and calculated by the Area Under Coordinates Program (StatsToDo Server, Department of Obstetrics and Gynecology, Chinese University of Hong Kong).

db/db mice [2] = assay: Histopathological assessment (H&E stain); assay type: in vivo
Excerpt: For histopathological assessment, all mice were sacrificed by 95% CO2 asphyxiation at the end of the study period. Their brain, liver, kidney, pancreas, and epididymal fat pads were removed, fixed in 10% phosphate-buffered formalin, and embedded in paraffin. Tissues embedded in paraffin were cut into […] sections that were then stained with hematoxylin-eosin (i.e., H&E stain).

C[C@@H](O)[C@H]1C(=O)N2C(C(=O)O)=C(S[C@@H]3CN[C@H](C(=O)Nc4cccc(C(=O)O)c4)C3)[C@H](C)[C@H]12 [DMH, ertapenem]
Level of OGTT (blood glucose) (db/db mice [1]; Ex 2 G4 db/db, DMH i.p. 0.1 mg/g bw/day, dosing 6 weeks, Week 16, 120 min): 270 ± 65^bd | Level of OGTT (blood glucose) (db/db mice [1]; Ex 2 G4 db/db, DMH i.p. 0.1 mg/g bw/day, dosing 6 weeks, Week 18, 0 min): 263 ± 58 mg/dL | Level of OGTT (blood glucose) (db/db mice [1]; Ex 2 G4 db/db, DMH i.p. 0.1 mg/g bw/day, dosing 6 weeks, Week 18, 15 min): 785 ± 57 mg/dL | Level of OGTT (blood glucose) (db/db mice [1]; Ex 2 G4 db/db, DMH i.p. 0.1 mg/g bw/day, dosing 6 weeks, Week 18, 30 min): 894 ± 49 mg/dL | Level of OGTT (blood glucose) (db/db mice [1]; Ex 2 G4 db/db, DMH i.p. 0.1 mg/g bw/day, dosing 6 weeks, Week 18, 60 min): 735 ± 47 mg/dL | Level of OGTT (blood glucose) (db/db mice [1]; Ex 2 G4 db/db, DMH i.p. 0.1 mg/g bw/day, dosing 6 weeks, Week 18, 120 min): 447 ± 53 mg/dL | OGTT AUC (db/db mice [1]; Ex 2 G4 db/db, DMH i.p. 0.1 mg/g bw/day, dosing 6 weeks, week 6): 1033 ± 87^b | OGTT AUC (db/db mice [1]; Ex 2 G4 db/db, DMH i.p. 0.1 mg/g bw/day, dosing 6 weeks, week 12): 1096 ± 119^b | OGTT AUC (db/db mice [1]; Ex 2 G4 db/db, DMH i.p. 0.1 mg/g bw/day, dosing 6 weeks, week 16): 902 ± 85^b | OGTT AUC (db/db mice [1]; Ex 2 G4 db/db, DMH i.p. 0.1 mg/g bw/day, dosing 6 weeks, week 18): 1339 ± 80^b | Level of OGTT (blood glucose) (db/db mice [1]; Ex 2 G5 db/db, DMH i.p. 0.2 mg/g bw/day, dosing 6 weeks, Week 6, 0 min): 166 ± 21 mg/dL | Level of OGTT (blood glucose) (db/db mice [1]; Ex 2 G5 db/db, DMH i.p. 0.2 mg/g bw/day, dosing 6 weeks, Week 6, 15 min): 750 ± 57 mg/dL | Level of OGTT (blood glucose) (db/db mice [1]; Ex 2 G5 db/db, DMH i.p. 0.2 mg/g bw/day, dosing 6 weeks, Week 6, 30 min): 618 ± 68 mg/dL | Level of OGTT (blood glucose) (db/db mice [1]; Ex 2 G5 db/db, DMH i.p. 0.2 mg/g bw/day, dosing 6 weeks, Week 6, 60 min): 425 ± 63 mg/dL | Level of OGTT (blood glucose) (db/db mice [1]; Ex 2 G5 db/db, DMH i.p. 0.2 mg/g bw/day, dosing 6 weeks, Week 6, 120 min): 316 ± 92^bc | Level of OGTT (blood glucose) (db/db mice [1]; Ex 2 G5 db/db, DMH i.p. 0.2 mg/g bw/day, dosing 6 weeks, Week 12, 0 min): 191 ± 42^bc | Level of OGTT (blood glucose) (db/db mice [1]; Ex 2 G5 db/db, DMH i.p. 0.2 mg/g bw/day, dosing 6 weeks, Week 12, 15 min): 879 ± 45 mg/dL | Level of OGTT (blood glucose) (db/db mice [1]; Ex 2 G5 db/db, DMH i.p. 0.2 mg/g bw/day, dosing 6 weeks, Week 12, 30 min): 790 ± 40^bc | Level of OGTT (blood glucose) (db/db mice [1]; Ex 2 G5 db/db, DMH i.p. 0.2 mg/g bw/day, dosing 6 weeks, Week 12, 60 min): 548 ± 69 mg/dL | Level of OGTT (blood glucose) (db/db mice [1]; Ex 2 G5 db/db, DMH i.p. 0.2 mg/g bw/day, dosing 6 weeks, Week 12, 120 min): 440 ± 81^bc | Level of OGTT (blood glucose) (db/db mice [1]; Ex 2 G5 db/db, DMH i.p. 0.2 mg/g bw/day, dosing 6 weeks, Week 16, 0 min): 154 ± 56^ab | Level of OGTT (blood glucose) (db/db mice [1]; Ex 2 G5 db/db, DMH i.p. 0.2 mg/g bw/day, dosing 6 weeks, Week 16, 15 min): 619 ± 48 mg/dL | Level of OGTT (blood glucose) (db/db mice [1]; Ex 2 G5 db/db, DMH i.p. 0.2 mg/g bw/day, dosing 6 weeks, Week 16, 30 min): 686 ± 34^bc | Level of OGTT (blood glucose) (db/db mice [1]; Ex 2 G5 db/db, DMH i.p. 0.2 mg/g bw/day, dosing 6 weeks, Week 16, 60 min): 551 ± 52^bc | Level of OGTT (blood glucose) (db/db mice [1]; Ex 2 G5 db/db, DMH i.p. 0.2 mg/g bw/day, dosing 6 weeks, Week 16, 120 min): 314 ± 54^bc | Level of OGTT (blood glucose) (db/db mice [1]; Ex 2 G5 db/db, DMH i.p. 0.2 mg/g bw/day, dosing 6 weeks, Week 18, 0 min): 308 ± 51 mg/dL | Level of OGTT (blood glucose) (db/db mice [1]; Ex 2 G5 db/db, DMH i.p. 0.2 mg/g bw/day, dosing 6 weeks, Week 18, 15 min): 943 ± 43 mg/dL | Level of OGTT (blood glucose) (db/db mice [1]; Ex 2 G5 db/db, DMH i.p. 0.2 mg/g bw/day, dosing 6 weeks, Week 18, 30 min): 941 ± 53 mg/dL | Level of OGTT (blood glucose) (db/db mice [1]; Ex 2 G5 db/db, DMH i.p. 0.2 mg/g bw/day, dosing 6 weeks, Week 18, 60 min): 753 ± 70 mg/dL | Level of OGTT (blood glucose) (db/db mice [1]; Ex 2 G5 db/db, DMH i.p. 0.2 mg/g bw/day, dosing 6 weeks, Week 18, 120 min): 541 ± 63^bc | OGTT AUC (db/db mice [1]; Ex 2 G5 db/db, DMH i.p. 0.2 mg/g bw/day, dosing 6 weeks, week 6): 916 ± 110^b | OGTT AUC (db/db mice [1]; Ex 2 G5 db/db, DMH i.p. 0.2 mg/g bw/day, dosing 6 weeks, week 12): 1171 ± 117^bc | OGTT AUC (db/db mice [1]; Ex 2 G5 db/db, DMH i.p. 0.2 mg/g bw/day, dosing 6 weeks, week 16): 1002 ± 88^bc | OGTT AUC (db/db mice [1]; Ex 2 G5 db/db, DMH i.p. 0.2 mg/g bw/day, dosing 6 weeks, week 18): 1462 ± 104^b | Level of OGTT (blood glucose) (db/db mice [1]; Ex 2 G6 db/db, DMH i.p. 0.4 mg/g bw/day, dosing 6 weeks, Week 6, 0 min): 175 ± 30 mg/dL | Level of OGTT (blood glucose) (db/db mice [1]; Ex 2 G6 db/db, DMH i.p. 0.4 mg/g bw/day, dosing 6 weeks, Week 6, 15 min): 747 ± 38 mg/dL | Level of OGTT (blood glucose) (db/db mice [1]; Ex 2 G6 db/db, DMH i.p. 0.4 mg/g bw/day, dosing 6 weeks, Week 6, 30 min): 669 ± 69 mg/dL | Level of OGTT (blood glucose) (db/db mice [1]; Ex 2 G6 db/db, DMH i.p. 0.4 mg/g bw/day, dosing 6 weeks, Week 6, 60 min): 418 ± 56 mg/dL | Level of OGTT (blood glucose) (db/db mice [1]; Ex 2 G6 db/db, DMH i.p. 0.4 mg/g bw/day, dosing 6 weeks, Week 6, 120 min): 223 ± 27^ab | Level of OGTT (blood glucose) (db/db mice [1]; Ex 2 G6 db/db, DMH i.p. 0.4 mg/g bw/day, dosing 6 weeks, Week 12, 0 min): 166 ± 26^ac | Level of OGTT (blood glucose) (db/db mice [1]; Ex 2 G6 db/db, DMH i.p. 0.4 mg/g bw/day, dosing 6 weeks, Week 12, 15 min): 859 ± 50 mg/dL | Level of OGTT (blood glucose) (db/db mice [1]; Ex 2 G6 db/db, DMH i.p. 0.4 mg/g bw/day, dosing 6 weeks, Week 12, 30 min): 698 ± 65 mg/dL | Level of OGTT (blood glucose) (db/db mice [1]; Ex 2 G6 db/db, DMH i.p. 0.4 mg/g bw/day, dosing 6 weeks, Week 12, 60 min): 489 ± 55 mg/dL | Level of OGTT (blood glucose) (db/db mice [1]; Ex 2 G6 db/db, DMH i.p. 0.4 mg/g bw/day, dosing 6 weeks, Week 12, 120 min): 324 ± 47 mg/dL | Level of OGTT (blood glucose) (db/db mice [1]; Ex 2 G6 db/db, DMH i.p. 0.4 mg/g bw/day, dosing 6 weeks, Week 16, 0 min): 108 ± 22^ab | Level of OGTT (blood glucose) (db/db mice [1]; Ex 2 G6 db/db, DMH i.p. 0.4 mg/g bw/day, dosing 6 weeks, Week 16, 15 min): 543 ± 57 mg/dL | Level of OGTT (blood glucose) (db/db mice [1]; Ex 2 G6 db/db, DMH i.p. 0.4 mg/g bw/day, dosing 6 weeks, Week 16, 30 min): 650 ± 29^bc | Level of OGTT (blood glucose) (db/db mice [1]; Ex 2 G6 db/db, DMH i.p. 0.4 mg/g bw/day, dosing 6 weeks, Week 16, 60 min): 535 ± 43^bc | Level of OGTT (blood glucose) (db/db mice [1]; Ex 2 G6 db/db, DMH i.p. 0.4 mg/g bw/day, dosing 6 weeks, Week 16, 120 min): 244 ± 35^ab | Level of OGTT (blood glucose) (db/db mice [1]; Ex 2 G6 db/db, DMH i.p. 0.4 mg/g bw/day, dosing 6 weeks, Week 18, 0 min): 266 ± 35 mg/dL | Level of OGTT (blood glucose) (db/db mice [1]; Ex 2 G6 db/db, DMH i.p. 0.4 mg/g bw/day, dosing 6 weeks, Week 18, 15 min): 872 ± 46 mg/dL | Level of OGTT (blood glucose) (db/db mice [1]; Ex 2 G6 db/db, DMH i.p. 0.4 mg/g bw/day, dosing 6 weeks, Week 18, 30 min): 860 ± 58 mg/dL | Level of OGTT (blood glucose) (db/db mice [1]; Ex 2 G6 db/db, DMH i.p. 0.4 mg/g bw/day, dosing 6 weeks, Week 18, 60 min): 637 ± 64 mg/dL | Level of OGTT (blood glucose) (db/db mice [1]; Ex 2 G6 db/db, DMH i.p. 0.4 mg/g bw/day, dosing 6 weeks, Week 18, 120 min): 480 ± 73 mg/dL | OGTT AUC (db/db mice [1]; Ex 2 G6 db/db, DMH i.p. 0.4 mg/g bw/day, dosing 6 weeks, week 6): 884 ± 84^b | OGTT AUC (db/db mice [1]; Ex 2 G6 db/db, DMH i.p. 0.4 mg/g bw/day, dosing 6 weeks, week 12): 1026 ± 94^b | OGTT AUC (db/db mice [1]; Ex 2 G6 db/db, DMH i.p. 0.4 mg/g bw/day, dosing 6 weeks, week 16): 916 ± 68^b | OGTT AUC (db/db mice [1]; Ex 2 G6 db/db, DMH i.p. 0.4 mg/g bw/day, dosing 6 weeks, week 18): 1291 ± 118^b | Regulation of blood glucose homeostasis (OGTT glucose vs G8) (db/db mice [1]; Ex 3, medications stopped for at least 3 weeks (FIG. 6A, 6B)): still effective | OGTT AUC (db/db mice [1]; Ex 3: db/db mice, daily dosing 3 weeks at doses of Table 10, Week 6 (stopped for 3 weeks)): 1263 ± 135^b | OGTT AUC (db/db mice [1]; Ex 3: db/db mice, daily dosing 3 weeks at doses of Table 10, Week 9 (stopped for 6 weeks)): 1356 ± 149^bc | Injuries in brain, liver, kidney, pancreas, and epididymal fat pads (db/db mice [2]; Ex 1, after 3 weeks 0.41 mg/g bw/day i.p.): no significant injuries | Severity and incidence of liver glycogen storage vs DB group (db/db mice [2]; Ex 1, hepatocyte cytoplasm around central venous region): slighter | Injuries in liver, kidney, pancreas, and epididymal fat pads (db/db mice [2]; Ex 2): No significant injuries
